# “And” between values parts separate entries of the source, which are not always exact repeats. Equal entries are not always repeated.
# How the values were obtained:
# B-RAF = biological target: T1, B-RAF (Homo sapiens, UniProt P15056, V600E); assay: DELFIA Kinase Assay; format: biochemical; conditions: 100 μM ATP, GST-MEK substrate
# T1 construct: made in house
# Method: Biological Methods—DELFIA Kinase Assay
# Compounds were assessed by a kinase assay performed according to the following protocol.
# DKB1 (DKB with B-RAF and MEK Protein):
# Combine 4950 μL of DKB and 50 μL of 2.5 mg/ml GST-MEK stock (to give […] of MEK per 40 μL). Then add 22.5 μL of B-RAF to give ˜0.2 μL of B-RAF per 40 μL.
# 100 mM stock, dilute to 500 μM to give 100 μM final concentration in assay.
# • 1. Preblock wells with 5% milk in TBS for 1 hour. • 2. Wash wells with 3× with 200 μL TBS. • 3. Plate out 40 μL of DKB1 for all inhibitors (test compounds), DMSO control, and optionally other control compounds. • 4. Plate out 40 μL of DKB2 for BO and EV wells. • 5. Add inhibitors (test compounds) at 0.5 μL per well according to desired plate layout. • 6. Add 0.5 μL DMSO to vehicle control wells. • 7. Add 2 μL of B-RAF to BO and EV wells. • 8. Pre-incubate with inhibitors (test compounds) for 10 minutes at room temperature with shaking. • 9. Add 10 μL of 500 μM ATP stock, in DKB, to give 100 μM assay concentration. • 10. Seal plates with TopSeal and incubate at room temperature with shaking for 45 minutes. • 11. Wash plates 3× with 200 μL 0.1% Tween20/Water to terminate reaction. • 12. Add 50 μL per well of antibody mix and incubate for 1 hour at room temperature with shaking. • 13. Wash plates 3× with 200 μL 0.1% Tween20/Water. • 14. Add 100 μL DELFIA enhancement solution per well, cover in foil, and incubate at room temperature for 30 minutes with shaking. • 15. Read on Victor using Europium protocol.
# (§1) Values for the blank (Empty Vector) are subtracted from all values. The DMSO controls are set as 100% activity and assay points (the response) are calculated as a percentage of the DMSO control. Data are plotted using Graphpad Prism software and a non-linear regression line is calculated using a variable slope sigmoidal dose-response equation (Y=Bottom+(Top−Bottom)/(1+10^((LogEC50−X)*HillSlope)) where X is the logarithm of concentration. Y is the response). The IC50 generated by this procedure is the concentration of the drug that produces a percentage control fluorescence value midway between the saturation, and zero-effect plateaus. Three independent assays are usually performed and the mean IC50 is reported.
# WM266.4 melanoma cells = assay: SRB Cell Proliferation Assay (SRB GI50); format: cell-based; conditions: Homo sapiens, WM 266-4, 144 h, 6 days growth
# Method: Biological Methods —SRB Cell Proliferation Assay (SRB GI50)
# Cultures of WM266.4 melanoma cells are routinely cultured in DMEM/10% foetal bovine serum, at 37° C., in 5% CO2 water saturated atmosphere. Cultures are maintained in exponential growth phase by sub-culturing before having become confluent (3-5 day intervals). Single cell suspensions are prepared by harvesting an 80 cm^2 tissue culture flask with 5 mL commercial trypsin EDTA. After 5 minutes, the detached cells are mixed with 5 mL fully complemented culture medium and centrifugally pelleted (1000 rpm for 7 minutes). After aspirating the supernatant, the cell pellet is re-suspended in 10 mL fresh medium and the cells fully disaggregated by drawing the whole volume up/down 5 times through a 19-gauge needle. The concentration of the cells is determined using a haemocytometer (1/10 dilution). A suitable volume to give at least a 2-fold excess for the number of tests being conducted, typically 100-200 mL, is prepared by diluting the cell suspension to 10,000/mL, and 100 μL/well dispensed into 96 well plates using a programmable 8-channel peristaltic pump, giving 1000 cells/well, leaving column 12 blank. The plates are returned to the incubator for 24 hours to allow the cells to re-attach.
# The compounds being tested are prepared at 20 mM in dimethylsulphoxide. Aliquots (200 μL) are diluted into 20 mL culture medium giving 200 μM, and 10 serial dilutions of 3× performed by transferring 5 mL to 10 mL. Aliquots (100 μL) of each dilution are added to the wells, using an 8-channel pipettor, thus performing a final further 2× dilution, and giving doses ranging from 100 μM to 0.005 μM. Column 11 receives plain culture medium only. Each compound is tested in quadruplicate, each replicate being the average of four wells, and two plates per compound.
# After a further 6 days growth, the plates are emptied, and the cells are fixed in 10% trichloroacteic acid for 10 minutes on ice. After thorough rinsing in running tap water, the plates are dried, and stained by adding 50 μL of a solution of 0.1% sulphorhodamine-B in 1% acetic acid, for 10 minutes at room temperature. The stain is poured out and the plates thoroughly rinsed under a stream of 1% acetic acid, thus removing unbound stain, and dried. The bound stain is taken into solution by addition of 150 μL Tris buffer pH 8, followed by 10 minutes on a plate-shaker (approximately 500 rpm). The absorbance at 540 nm in each well (being proportional to the number of cells present) is determined using a plate reader.
# After averaging the results in rows A-D and E-H, the blank value (row 12) is subtracted, and results expressed as percentage of the untreated value (row 11). […] The GI50 generated by this procedure is the concentration of the drug that produces a percentage control A540 midway between the saturation, and zero-effect plateaus.
# pERK = assay: Cell Based Phospho-ERK Assay; conditions: 6 h, 6 hours incubation with test compound
# Method: Biological Methods—Cell Based Phosho-ERK Assay
# Compounds were assessed using a cell-based assay which was performed according to the following protocol.
# Plate out 16,000 cells/well in 99 μL medium in a 96-well plate.
# • 1. Add 1 μL inhibitor to the cells (total […] solution). • 2. Incubate the cells with test compound for 6 hours at 37° C. • 3. Aspirate off the solution from all of the wells. • 4. Fixate the cells with 100 μL 4% formaldehyde/0.25% Triton X-100 PBS per well. • 5. Incubate the plate for 1 hour at 4° C. • 6. Aspirate off the fixing solution and add 300 μL TBS per well. • 7. Leave the plate overnight at 4° C. Day 2: • 1. Wash the plate 2× with 200 μL PBS per well. • 2. Block with 100 μL 5% dried milk in TBS. • 3. Incubate the plate for 20 minutes at 37° C. • 4. Wash the plate 2× with 0.1% tween/H2O. • 5. Add 50 μL of 3 μg/mL primary antibody pERK (Sigma M8159), diluted in 5% milk powder/TBS, to each well. • 6. Incubate the plate for 2 hours at 37° C. • 7. Wash the plate 3× with 0.1% tween/H2O. • 8. Add 50 μL of 0.45 μg/mL secondary Europium-labelled anti-mouse antibody (Perkin Elmer) to each well. • 9. Incubate the plate for 1 hour at 37° C. • 10. Wash the plate 3× with 0.1% tween/H2O. • 11. Add 100 μL enhancement solution (Perkin Elmer) to each well. • 12. Leave the plate for approximately 10 minutes at room temperature before gently shaking the plate. • 13. Read Europium Time Resolved Fluorescence in Victor2. • 14. Wash the plate 2× with 0.1% tween/H2O. • 15. Measure the protein concentration with BCA (Sigma) by adding 200 μL of solution per well. • 16. Incubate the plate for 30 minutes at 37° C. • 17. Read absorbance levels at 570 nm in a plate reader.
# Note that Europium counts are normalised for protein levels by dividing counts by absorbance.
# as §1, with “(no cells)” for “(Empty Vector)”
# T1 sequence (P15056 whole entry V600E): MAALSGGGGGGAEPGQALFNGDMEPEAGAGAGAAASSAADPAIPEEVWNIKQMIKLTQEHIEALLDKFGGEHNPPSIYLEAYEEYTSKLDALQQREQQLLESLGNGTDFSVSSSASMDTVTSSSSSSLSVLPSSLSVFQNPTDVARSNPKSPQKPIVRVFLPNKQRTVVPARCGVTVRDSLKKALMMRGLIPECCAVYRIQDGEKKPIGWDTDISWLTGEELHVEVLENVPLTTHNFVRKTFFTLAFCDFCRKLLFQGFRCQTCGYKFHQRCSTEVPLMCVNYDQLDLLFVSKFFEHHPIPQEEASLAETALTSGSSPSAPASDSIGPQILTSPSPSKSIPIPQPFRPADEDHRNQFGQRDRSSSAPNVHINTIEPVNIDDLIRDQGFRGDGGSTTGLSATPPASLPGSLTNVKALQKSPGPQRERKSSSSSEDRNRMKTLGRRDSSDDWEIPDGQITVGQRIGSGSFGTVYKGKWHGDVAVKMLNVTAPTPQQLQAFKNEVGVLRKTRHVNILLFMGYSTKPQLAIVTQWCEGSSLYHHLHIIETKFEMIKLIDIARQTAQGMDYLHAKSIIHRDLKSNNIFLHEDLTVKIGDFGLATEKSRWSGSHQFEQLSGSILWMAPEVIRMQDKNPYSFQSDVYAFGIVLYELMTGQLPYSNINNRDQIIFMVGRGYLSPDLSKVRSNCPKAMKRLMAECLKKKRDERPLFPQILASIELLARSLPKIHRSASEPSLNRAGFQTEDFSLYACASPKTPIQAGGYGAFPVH
SMILES,IC50 (B-RAF),GI50 (WM266.4 melanoma cells),IC50 (pERK)
"O=C(Nc1cccc(Oc2ccnc3[nH]c(=O)cnc23)c1)Nc1cc(C(F)(F)F)ccc1F [AA-007, 1-(2-fluoro-5-(trifluoromethyl)phenyl)-3-(3-(3-oxo-3,4-dihydropyrido[2,3-b]pyrazin-8-yloxy)phenyl)urea]",< 100 nM,1000 to 10000 nM,–
"CC(C)(C)c1cc(NC(=O)Nc2ccc(Oc3ccnc4nc(N)c(=O)[nH]c34)c3ccccc23)n(-c2ccccc2)n1 [AA-081, 1-(4-(3-amino-2-oxo-1,2-dihydropyrido[2,3-b]pyrazin-8-yloxy)naphthalen-1-yl)-3-(3-tert-butyl-1-phenyl-1H-pyrazol-5-yl)urea]",100 to 1000 nM,< 1000 nM,< 1000 nM
"CN(C)c1cnc2c(Oc3ccc(NC(=O)Nc4cc(C(F)(F)F)ccc4F)c(F)c3)ccnc2n1 [AA-068, 1-(4-(3-(dimethylamino)pyrido[3,2-b]pyrazin-8-yloxy)-2-fluorophenyl)-3-(2-fluoro-5-(trifluoromethyl)phenyl)urea]",100 to 1000 nM,1000 to 10000 nM,–
"Cc1ccc(-n2nc(C(C)(C)C)cc2NC(=O)Nc2cccc(Oc3ccnc4[nH]c(=O)c(C)nc34)c2)cc1 [AA-078, 1-(3-tert-butyl-1-p-tolyl-1H-pyrazol-5-yl)-3-(3-(2-methyl-3-oxo-3,4-dihydropyrido[2,3-b]pyrazin-8-yloxy)phenyl)urea]",100 to 1000 nM,< 1000 nM,< 1000 nM
"O=C(Nc1cc(C(F)(F)F)ccc1F)Nc1ccc(Oc2ccnc3[nH]c(=O)cnc23)c2ccccc12 [AA-012, 1-(2-fluoro-5-(trifluoromethyl)phenyl)-3-(4-(3-oxo-3,4-dihydropyrido[2,3-b]pyrazin-8-yloxy)naphthalen-1-yl)urea]",< 1000 nM and 100 to 1000 nM,1000 to 10000 nM,–
"CN(C)c1cnc2c(Oc3ccc(NC(=O)Nc4cc(C(C)(C)C)nn4-c4ccccc4)c(F)c3)ccnc2n1 [AA-070, 1-(3-Tert-butyl-1-phenyl-1H-pyrazol-5-yl)-3-(4-(3-(dimethylamino)pyrido[3,2-b]pyrazin-8-yloxy)-2-fluorophenyl)urea]",–,1000 to 10000 nM,1000 to 10000 nM

# Second part, the molecule after the results:
IC50 (B-RAF),GI50 (WM266.4 melanoma cells),IC50 (pERK),SMILES
100 to 1000 nM,< 1000 nM,< 1000 nM,"CC(C)(C)c1cc(NC(=O)Nc2ccc(Oc3ccnc4[nH]c(=O)cnc34)cc2F)n(-c2ccc(S(C)(=O)=O)cc2)n1 [AA-090, 1-(3-tert-butyl-1-(4-(methylsulfonyl)phenyl)-1H-pyrazol-5-yl)-3-(2-fluoro-4-(3-oxo-3,4-dihydropyrido[3,2-b]pyrazin-8-yloxy)phenyl)urea]"
< 1000 nM and 100 to 1000 nM,1000 to 10000 nM,–,"CNc1cnc2c(Oc3ccc(NC(=O)Nc4cc(C(F)(F)F)ccc4F)c(F)c3)ccnc2n1 [AA-055, 1-(2-fluoro-4-(3-(methylamino)pyrido[3,2-b]pyrazin-8-yloxy)phenyl)-3-(2-fluoro-5-(trifluoromethyl)phenyl)urea]"
–,< 1000 nM,< 1000 nM,"Cc1ccc(-n2nc(C(C)(C)C)cc2NC(=O)Nc2ccc(Oc3ccnc4nc(N5CCOCC5)cnc34)cc2F)cc1 [AA-073, 1-(3-tert-butyl-1-p-tolyl-1H-pyrazol-5-yl)-3-(2-fluoro-4-(3-morpholinopyrido[3,2-b]pyrazin-8-yloxy)phenyl)urea]"
< 1000 nM and 100 to 1000 nM,< 10000 nM,–,"O=C(Nc1ccc(Cl)c(C(F)(F)F)c1)Nc1ccc(Oc2ccnc3ncc(=O)[nH]c23)c2ccccc12 [AA-037, 1-(4-chloro-3-(trifluoromethyl)phenyl)-3-(4-(1-oxo-1,2-dihydropyrido[2,3-b]pyrazin-8-yloxy)naphthalen-1-yl)urea]"
–,1000 to 10000 nM,< 1000 nM,"CC(C)(C)c1cc(NC(=O)Nc2ccc(Oc3ccnc4[nH]c(=O)cnc34)cc2F)n(CC2CCC2)n1 [AA-099, 1-(3-Tert-butyl-1-(cyclobutylmethyl)-1H-pyrazol-5-yl)-3-(2-fluoro-4-(3-oxo-3,4-dihydropyrido[3,2-b]pyrazin-8-yloxy)phenyl)urea]"

# From patent publication US8198279B2, “Pyrido[2,3-b]pyrazin-8-substituted compounds and their use” (Institute of Cancer Research: Royal Cancer Hospital (The), priority 2007, dated 2012)
